Laboratory results reported in paper PMC3792974, “Novel Inhibitor Cystine Knot Peptides from Momordica charantia” (PLoS ONE, 2013).
“Also recorded” adds a separate entry of the source. No end group written: not given here.

How the values were obtained:
[1] = tested on: Plasmodium falciparum (FCR-3 strain); experiment: Antimalarial assay; type: cell-based; settings: FCR-3 strain in human RBCs (type A), 5% hematocrit, 0.3% parasitemia, GIT medium, 37°C, 72 h; various concentrations, duplicate; Giemsa smears, microscopy; positive control artemisinin
Procedure: Plasmodium falciparum (FCR-3 strain) was maintained in vitro at 37°C in GIT medium containing human red blood cells (RBCs, type A) at 5% hematocrit in 24-well plates which were put in a CO2 incubator (5% CO2, 5% O2 and 90% N2) at 37°C [41]. Peptides were added in duplicate in distilled water or 0.25 M phosphoric acid and prepared in various concentrations. 10 µL of this solution was added to individual cells of the plates. Erythrocytes with 0.3% parasitemia were added to the cells of the above plates containing 990 µL of culture medium. The plates were incubated at 37°C for 72 h in the CO2 incubator. To test the antimalarial activity of peptides, thin smears were prepared from each culture and stained with Giemsa. Erythrocytes were examined under microscopy. Artemisinin was used as the positive control. Drug-free control cultures were assayed simultaneously, [43].

[2] = tested on: bovine pancreatic trypsin; experiment: Trypsin inhibitory assay; type: biochemical; settings: substrate L-BAPNA, 50 mM Tris/20 mM CaCl2 pH 8.2, 10 min, room temperature; four concentrations, initial 750 µM or 1.5 mM with 10-fold dilutions; triplicate; absorbance 410 nm; positive control MCoTI-II
Procedure: A stock solution of bovine pancreatic trypsin at 4.5 mg/mL in 1 mM HCl was prepared and stored on ice. Firstly, the trypsin stock was diluted to 0.45 mg/mL in 50 mM Tris/20 mM CaCl2 (pH 8.2) buffer. Next, the substrate was prepared by dissolving 0.435 mg/mL L-BAPNA (Nα-benzoyl-L-arginine 4-nitroanilide hydrochloride, Sigma-Aldrich) in 1% DMSO/99% 50 mM Tris/20 mM CaCl2 buffer (pH 8.2). Four different peptide concentrations were tested starting from initial concentrations of 750 µM or 1.5 mM with 10-fold dilutions. The reaction mixture was prepared by dispensing 15 µL of 50 mM Tris/20 mM CaCl2 (pH 8.2) buffer, 5 µL of 0.45 mg/mL trypsin and followed by 5 µL of the tested peptide into each well of a 96-well plate in triplicate. A control without the tested peptide was used to measure 100% trypsin activity. Subsequently, 125 µL of 0.435 mg/mL substrate was added to the plate and incubated for 10 min at room temperature. The reaction was stopped by adding 25 µL of 30% acetic acid. Absorbance was measured at 410 nm using a Powerwave XS plate reader (Bio-Tek). Trypsin inhibition was calculated from the absorbance in the presence of the tested peptide as a percent of absorbance of the uninhibited trypsin [39]. MCoTI-II was used as the positive control.

MDA-MB-231 = experiment: Cytotoxicity MTT assay, MDA-MB-231; type: cell-based; settings: MDA-MB-231 human breast cancer cells; 0.1 µM to 100 µM, duplicate, 5 h, 37°C; MTT 1 h, absorbance 600 nm; positive control Taxol
Procedure: (§1) The cytotoxicity of the peptides on breast cancer cells (MDA-MB-231) and non-cancerous human cells (HFF-1) was measured using a standard MTT (3-(4,5-dimethylthiazol-2-yl)-2,5-diphenyltetrazolium bromide, Sigma-Aldrich) assay. Cells were seeded in a 96-well flat-bottomed plate at a concentration of 5.0×10^4 cells/cm^2 in DMEM in 10% FBS, or DMEM in 15% FBS, and incubated at 37°C in an atmosphere of 5% CO2 in air. After 24 h, peptides were added in duplicate at the concentrations ranging from 0.1 µM to 100 µM to make up a final volume of 100 µL in each well and then incubated for 5 h. MTT solution (10 µL) in PBS (5 mg/mL) was added to each well and maintained for 1 h. Media was removed, and formazan crystals were resuspended in 100 µL of DMSO. Absorbance was then read at 600 nm. Taxol was used as the positive control.

HFF-1 = experiment: Cytotoxicity MTT assay, HFF-1; type: cell-based; settings: HFF-1 non-cancerous human cells; 0.1 µM to 100 µM, duplicate, 5 h, 37°C; MTT 1 h, absorbance 600 nm; positive control Taxol
Procedure: as §1

Q: “GCAGKSCNILGSDPCDAGCFCLPVGIVAGVCV (disulfide (positions not given here)) [MCh-1, PDB 2M2Q]” was tested. Which antimalarial activity [1] did it give?
A: Its antimalarial activity is “not active”.

Q: What about the trypsin inhibitory activity [2] of the same sequence?
A: The trypsin inhibitory activity was “not active; also recorded: not trypsin inhibitors”.

Q: What about the cytotoxic activity (MDA-MB-231) of the same sequence?
A: The cytotoxic activity was “not active”.

Q: And the cytotoxic activity (HFF-1)?
A: Its cytotoxic activity is “not active”.

Q: Which results are given for “GCAGKACNLLGLTCDAGCFCRPDGVGIVAGVCV (disulfide (positions not given here)) [MCh-2, PDB 2M2R]”?
A: antimalarial activity [1]: not active; trypsin inhibitory activity [2]: not active; also recorded: not trypsin inhibitors; cytotoxic activity (MDA-MB-231): not active; cytotoxic activity (HFF-1): not active
